Seven molecules from ChEMBL document CHEMBL1142599, “Biocatalytic and antimetastatic studies of the marine cembranoids sarcophine and 2-epi-16-deoxysarcophine” (J Nat Prod, 2006) can be followed below.

This test is filed under the species Mus musculus. Put plainly: Inhibition of mouse B16B15b cell migration after 16 hrs by wound-healing assay. Format: functional.
In the case of `CC1=C2CC/C(C)=C/[C@@H](O)C[C@]3(C)O[C@H]3CC/C(C)=C/[C@H]2OC1`, the Activity entry was “Dose-dependent effect”. As for `CC1=C2CC/C(C)=C/CC[C@]3(C)O[C@H]3CC/C(C)=C/[C@@H]2OC1=O`, the Activity result was “Dose-dependent effect”. Turning to `CC1=C2[C@@H](O)C/C(C)=C/CC[C@]3(C)O[C@H]3CC/C(C)=C/[C@H]2OC1`, the Activity entry was “Dose-dependent effect”. `C/C1=C\[C@H]2OC[C@@]3(C)O[C@@]23CC/C(C)=C/CC[C@]2(C)O[C@H]2CC1`: the Activity entry was “Dose-dependent effect”. The same measure for `CC1=C2CC/C(C)=C/C[C@H](O)[C@]3(C)O[C@H]3CC/C(C)=C/[C@H]2OC1`: “Dose-dependent effect”. In the case of `CC1=C2CC/C(C)=C/C[C@H](O)[C@]3(C)O[C@H]3CC/C(C)=C/[C@@H]2OC1=O`, the Activity result is “Dose-dependent effect”.

In the case of `CC1=C2CC/C(C)=C/CC[C@]3(C)O[C@H]3CC/C(C)=C/[C@H]2OC1`, the Activity entry was “Dose-dependent effect”.
